From the NIST ThermoML archive (doi:10.1021/je700408x)
Numbers after ± are expanded uncertainties.

Details: Liquid; for mass density: 303.15 K, 101.33 kPa, Pycnometric method; for vapor or sublimation pressure / Normal boiling temperature: Ebulliometric method (Recirculating still)

| vapor or sublimation pressure (355.05 K) [kPa] | vapor or sublimation pressure (460.95 K) [kPa] | SMILES | mass density [kg/m3] | vapor or sublimation pressure (345.45 K) [kPa] | Normal boiling temperature [°C] | vapor or sublimation pressure (417.05 K) [kPa] | vapor or sublimation pressure (391.95 K) [kPa] | vapor or sublimation pressure (357.75 K) [kPa] |
| --- | --- | --- | --- | --- | --- | --- | --- | --- |
| – | – | CC(Cl)(Cl)Cl [1,1,1-trichloroethane] | 1320.97 ± 9.8 | 95.3 ± 2 | 74.20 ± 0.41 | – | – | – |
| – | – | ClC(Cl)C(Cl)Cl [1,1,2,2-tetrachloroethane] | 1578.59 ± 14 | – | 145.20 ± 0.41 | 95.3 ± 2 | – | – |
| 95.3 ± 2 | – | ClCCCl [1,2-dichloroethane] | 1238.41 ± 8.6 | – | 83.80 ± 0.41 | – | – | – |
| – | 95.3 ± 2 | C[S+](C)[O-] [dimethyl sulfoxide] | 1090.4 ± 6.7 | – | 189.04 ± 0.41 | – | – | – |
| – | – | ClC(Cl)=C(Cl)Cl [tetrachloroethene] | 1606.39 ± 14 | – | 121.00 ± 0.41 | – | 95.3 ± 2 | – |
| – | – | ClC=C(Cl)Cl [trichloroethene] | 1451.42 ± 12 | – | 87.10 ± 0.41 | – | – | 95.3 ± 2 |
